What was measured:
[1] = pH of a saturated aqueous solution at 20° C.; assay type: physicochemical
[2] = Solubility (25° C. - w/v); assay type: physicochemical; settings: for Solubility in acetone, acetonitrile, tetrahydrofuran, dioxane: practically insoluble; for Solubility in methanol: slightly soluble; for Solubility in ethanol: very slightly soluble; for Solubility in water: very soluble
[3] = Partition coefficient in phosphate buffer (pH 6.8)/n-octanol at 25° C.; assay type: physicochemical
[4] = Stability at 25° C. and 60% R.H. (appearance, titre); assay type: physicochemical
[5] = Stability at 40° C. and 85% R.H. (appearance, titre); assay type: physicochemical
[6] = cited from earlier work
[7] = 0 months, (*): Crystalline powder of pale cream colour
[8] = 18 months (after slight yellowing at 12 months)
[9] = 24 months (after slight yellowing at 12 months)

Row | SMILES | pH of a saturated aqueous solution [1] | Solubility in benzene, chloroform, carbon tetrachloride, methylene chloride, ligroin, ethyl ether [2] | Solubility in acetone, acetonitrile, tetrahydrofuran, dioxane [2] | Solubility in methanol [2] | Solubility in ethanol [2] | Solubility in water [2] | Partition coefficient [3] | Titre ([4]; 0 months) [%] | Appearance [4, 7] | Appearance ([4]; 3 months) | Titre ([4]; 3 months, 131400 min) [%] | Appearance ([4]; 6 months) | Titre ([4]; 6 months, 262800 min) [%] | Appearance ([4]; 9 months) | Titre ([4]; 9 months, 394200 min) [%] | Appearance ([4]; 12 months) | Titre ([4]; 12 months, 525600 min) [%] | Titre ([5]; 0 months) [%] | Appearance [5, 7] | Appearance ([5]; 3 months) | other results
1 | Cl.N[C@H]1C(O)O[C@H](CO)[C@@H](O)[C@@H]1O.O=S(=O)([O-])[O-].[K+].[K+] (some centres unmarked) [Example 6] | 3 +/-0.2 | Insoluble | < 0.01 % (w/v) | about 1 % (w/v) | about 0.03 % (w/v) | about 40 % (w/v) | practically infinite | 100.1 | conforms | unchanged | 100.3 | unchanged | 99.8 | unchanged | 99.6 | unchanged | 100.3 | 100.1 | conforms | unchanged | Titre ([5]; 3 months, 129600 min): 100.3%; Appearance ([5]; 6 months): unchanged; Titre ([5]; 6 months, 259200 min): 99.8%; Appearance ([5]; 9 months): unchanged; Titre ([5]; 9 months, 388800 min): 100.0%; Titre ([5]; 12 months, 518400 min): 95.7%; Appearance [5, 8]: unchanged; Titre ([5]; 18 months, 777600 min): 96.2%; Appearance [5, 9]: unchanged; Titre ([5]; 24 months, 1.0368e+06 min): 95.5%
2 | Cl.N[C@H]1C(O)O[C@H](CO)[C@@H](O)[C@@H]1O.O=S(=O)([O-])[O-].[Mg+2] (some centres unmarked) [Example 8] | 3 +/-0.2 | Insoluble | < 0.01 % (w/v) | about 1 % (w/v) | about 0.03 % (w/v) | about 40 % (w/v) | practically infinite | 100.5 | conforms | unchanged | 100.1 | unchanged | 99.8 | unchanged | 100.3 | unchanged | 100.6 | 100.5 | conforms | unchanged | Titre ([5]; 3 months, 129600 min): 100.6%; Appearance ([5]; 6 months): unchanged; Titre ([5]; 6 months, 259200 min): 100.1%; Appearance ([5]; 9 months): unchanged; Titre ([5]; 9 months, 388800 min): 100.2%; Titre ([5]; 12 months, 518400 min): 97.4%; Appearance [5, 8]: unchanged; Titre ([5]; 18 months, 777600 min): 97.7%; Appearance [5, 9]: unchanged; Titre ([5]; 24 months, 1.0368e+06 min): 97.3%
3 | Cl.N[C@H]1C(O)O[C@H](CO)[C@@H](O)[C@@H]1O (some centres unmarked) [glucosamine hydrochloride, reference compound] | – | – | – | – | – | – | – | – | – | – | – | – | – | – | – | – | – | – | – | – | Stability on storage ([6]; no particular precautions in time, temperature or humidity): stable
4 | N[C@H]1C(O)O[C@H](CO)[C@@H](O)[C@@H]1O.O=S(=O)(O)O (some centres unmarked) [glucosamine sulphate, reference compound] | – | – | – | – | – | – | – | – | – | – | – | – | – | – | – | – | – | – | – | – | Hygroscopicity ([6]; background statement): highly hygroscopic

Reference: patent US5847107A, “Method of preparing mixed glucosamine salts” (Rotta Research B.V. Amsterdam (Swiss Branch), priority 1996, dated 1998)
